Target: T1, Fatty-acid amide hydrolase 1 (Homo sapiens, UniProt O00519)
T1 sequence (O00519 whole entry): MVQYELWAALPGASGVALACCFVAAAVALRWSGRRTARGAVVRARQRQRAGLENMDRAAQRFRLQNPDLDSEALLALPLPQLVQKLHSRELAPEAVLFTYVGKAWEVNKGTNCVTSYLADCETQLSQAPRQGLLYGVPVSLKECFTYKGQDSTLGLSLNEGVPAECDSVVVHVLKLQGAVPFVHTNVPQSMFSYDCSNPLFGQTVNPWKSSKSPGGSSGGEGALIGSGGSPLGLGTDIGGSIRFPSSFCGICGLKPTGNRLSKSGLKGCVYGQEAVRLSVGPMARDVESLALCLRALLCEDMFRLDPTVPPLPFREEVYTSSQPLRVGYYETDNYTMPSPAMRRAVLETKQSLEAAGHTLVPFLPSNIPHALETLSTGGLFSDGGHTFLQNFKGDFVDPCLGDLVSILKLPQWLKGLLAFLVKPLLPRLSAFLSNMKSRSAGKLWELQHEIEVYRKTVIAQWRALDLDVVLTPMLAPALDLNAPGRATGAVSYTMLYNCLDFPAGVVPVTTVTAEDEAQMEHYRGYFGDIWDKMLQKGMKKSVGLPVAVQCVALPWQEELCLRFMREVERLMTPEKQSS
Assay: Inhibition of FAAH

SMILES: CCCCCCCC/C=C\CCCCCCCC(=O)c1ncc(-c2ccccn2)o1
- Ki: 3 nM

Source: ChEMBL document CHEMBL1156770, “X-ray crystallographic analysis of alpha-ketoheterocycle inhibitors bound to a humanized variant of fatty acid amide hydrolase” (J Med Chem, 2010)
